The results in this text go back to patent US6849709B2, “Aerothricin derivatives” (Basilea Pharmaceutica AG, priority 2000, dated 2005).

The nature of data set [1]: Solubility. Conditions: solvents in which soluble.
Data set [2] has as its system Scedosporium apiospermum CF1077. The data set can be described thus: In vitro antifungal activity, broth micro-dilution IC80. The class given is cell-based. The settings on record: YNB medium with 0.2% agarose, 1-2 days at 35° C. Here is the method: (§1) The in vitro antifungal activities of the representative Aerothricins of the present study were evaluated by determining the 80% inhibitory concentration (IC80), which was calculated as the lowest concentration of an antifungal to inhibit the growth of fungus to 20% turbidity compared with the drug-free control growth spectrophotometrically.
(§2) The IC80 values were determined by the broth micro-dilution procedure based on NCCLS Approved Standard with the following minor modifications (National Committee for Clinical Laboratory Standards. (1997) Reference method for broth dilution antifungal susceptibility testing for yeasts. Approved standard. Document M27-A). Yeast Nitrogen Base (YNB; Difco Lab.) supplemented with 1% glucose and 0.25% K2HPO4 was used as testing medium for yeasts, the same medium solidified with 0.2% low melting point agarose (BRL) was used for filamentous fungi. Inoculum size was 1-3×10^3 cells/ml, and incubation was performed for 1-2 days at 35° C.
For orientation: Dilution methods test growth across graded concentrations, often in twofold steps.

Data set [3] has as its system Candida albicans CY1002. The data set is described as above. The class given is cell-based. The settings on record: YNB medium, 1-2 days at 35° C. Here is the method:
as §1, §2

For data set [4], the system named is Aspegillus fumigatus CF1003. The data set is described as above. It counts as cell-based, Aspergillus fumigatus. Conditions: YNB medium with 0.2% agarose, 1-2 days at 35° C. Here is the method:
as §1, §2

The subject of data set [5] is mouse hepatocytes. The data set can be described thus: In vitro hepatotoxicity test. It counts as cell-based. The settings on record: mouse hepatocyte monolayers, exposed 1 day, morphological evaluation. The source says:
The mouse hepatocytes were isolated by a collagenase digestion and cultured in microtest plates. The hepatocyte monolayers were exposed to the test Aerothricins in the culture system for 1 day. After the culture period, the hepatocytes were observed under a microscope and evaluated morphologically. The degree of the morphological alteration (degeneration) of the hepatocytes by the test Aerothricins were compared with WF11243 and LY303366.

Data set [6] relates to A. fumigatus. The data set can be described thus: Murine pulmonary aspergillosis, survival. Conditions: cortisone-treated ICR male mice; once daily for 4 days; survival on day 14. The class given is in vivo, mouse. The protocol:
Murine pulmonary aspergillosis was created in cortisone-treated (250 mg/kg, twice sub-cutaneous treatments on 3 days before and on the infection day) ICR male mouse. Conidia of A. fumigatus (2.5×10^5 conidia/mouse) were infected intratracheally to these mice, and treatments were carried out once daily for 4 days. The efficacy of each drug was determined from the survival number, and 50% of effective dose (ED50) was calculated from the survival number at each dose on the 14 days.

Data set [7] relates to Candida albicans. The data set can be described thus: Murine systemic candidiasis, survival. The class given is in vivo, mouse. The settings on record: Crj: CD-1 (ICR) mice; i.v. once just after infection; survival on day 7. Here is the method:
Mice of a conventional immunocompetent mouse strain, Crj: CD- 1 (ICR) were used for experimental infection models of systemic candidiasis. 4 weeks old Crj: CD-1 (ICR) mice were used for systemic candidiasis by injecting Candida albicans 5×10^6 conidia/mouse via the tail vein. Test compounds were intravenously (i.v.) given once just after infection for systemic candidiasis. 50% of effective dose (ED50) values were calculated from the survival number at each dose on day 7.

Data set [8] is described as follows: Toxicity on repeated i.v. administration to mice. The class given is in vivo. Conditions: 5 mg/kg and 30 mg/kg once daily i.v. for 2 weeks.

SMILES strings stand for the structures. *1 amine or outer side, *2 acyl side, *3 side chain or, on linkers, in order; H or OH if unused. Where a SMILES comes first, the peptide text is derived from it. Bridges are numbered along the chain shown (N, C = ends). Side-chain parts run from the residue outwards. [ ]: non-standard residue; d: D form. The star is where a group is joined. ξ: configuration not given here. pTerphenylCO(4''-OnC5H11) = CCCCCOc1ccc(-c2ccc(-c3ccc(C(=O)*)cc3)cc2)cc1; Orn(4R-OH,5R-OH) = O=C([C@H](C[C@@H](O)[C@@H](O)N[*:3])N[*:1])[*:2]; hTyr(3S-OH,4S-OH) = N[C@H](C(=O)O)[C@H](O)[C@@H](O)c1ccc(O)cc1; Orn(Nα,Nα-(2-aminoethyl)2) = NCCC[C@@H](C(=O)*)N(CCN)CCN; X2 = NCCC[C@H](N)C(=O)N(CCCN)CCC[C@H](N[*:1])C(=O)[*:2]; NαBis(2-aminoethyl)dOrn = NCCC[C@H](C(=O)*)N(CCN)CCN; Pro(3S-OH,4S-Me) = C[C@H]1CN[C@H](C(=O)O)[C@H]1O; X7 = CCCCCCCCCCCCC(C)[C@H](CC(=O)[*:1])O[*:2]; X4 = NCCCN(CCC[C@H](N[*:1])C(=O)[*:2])[*:3]; X3 = CCCCCCCCCCCCC[C@H](CC(=O)[*:1])O[*:2]; X6 = NCCN(CCC[C@H](N[*:1])C(=O)[*:2])[*:3]; ξGln(3R-OH) = NC(=O)C[C@@H](O)C(N)C(=O)O; Dopa = N[C@@H](Cc1ccc(O)c(O)c1)C(=O)O; Pro(3S-OH) = O=C(O)[C@H]1NCC[C@@H]1O; X1 = NC(=O)CC(O)C(N[*:1])C(=O)[*:2]; d(aThr) = C[C@@H](O)[C@@H](N)C(=O)O; Hyp = O=C(O)[C@@H]1C[C@@H](O)CN1; X5 = NCCCN[C@@H](CCCN)C(=O)*; dOrn = NCCC[C@@H](N)C(=O)O; Orn = NCCC[C@H](N)C(=O)O

As for `CCCCCCCCCCCCC(C)[C@@H]1CC(=O)N[C@H]([C@@H](C)O)C(=O)N[C@H](C)C(=O)N[C@@H](Cc2ccc(O)cc2)C(=O)N[C@@H](C(C)C)C(=O)N2C[C@H](O)C[C@H]2C(=O)N[C@H]([C@@H](C)O)C(=O)N[C@@H]([C@@H](C)O)C(=O)N2CC[C@H](O)[C@H]2C(=O)NC(C(O)CC(N)=O)C(=O)NCC(=O)N[C@H]([C@@H](C)O)C(=O)N[C@@H](CCCN)C(=O)O1` (stereo partly drawn) [Aerothricin 1] ([d(aThr)][dA]YV[Hyp][d(aThr)]T[Pro(3S-OH)][X1]G[d(aThr)][Orn]; linker N-C via X7), the Solubility result in data set [1] is “Soluble: water, methanol, dimethylsulfoxide”.

As for `CCCCCCCCCCCCC[C@@H]1CC(=O)N[C@H]([C@@H](C)O)C(=O)N[C@H](C)C(=O)N[C@@H](Cc2ccc(O)c(O)c2)C(=O)N[C@@H](C(C)C)C(=O)N2C[C@H](O)C[C@H]2C(=O)N[C@H]([C@@H](C)O)C(=O)N[C@@H]([C@@H](C)O)C(=O)N2CC[C@H](O)[C@H]2C(=O)NC(C(O)CC(N)=O)C(=O)NCC(=O)N[C@H]([C@@H](C)O)C(=O)N[C@@H](CCCN)C(=O)O1` (stereo partly drawn) [Aerothricin 2] ([d(aThr)][dA][Dopa]V[Hyp][d(aThr)]T[Pro(3S-OH)][X1]G[d(aThr)][Orn]; linker N-C via X3), in data set [1], the Solubility entry is given as “Soluble: water, methanol, dimethylsulfoxide”.

Take `CCCCCCCCCCCCC[C@@H]1CC(=O)N[C@H]([C@@H](C)O)C(=O)N[C@H](C)C(=O)N[C@@H](Cc2ccc(O)cc2)C(=O)N[C@@H](C(C)C)C(=O)N2C[C@H](O)C[C@H]2C(=O)N[C@H]([C@@H](C)O)C(=O)N[C@@H]([C@@H](C)O)C(=O)N2CC[C@H](O)[C@H]2C(=O)NC(C(O)CC(N)=O)C(=O)NCC(=O)N[C@H]([C@@H](C)O)C(=O)N[C@@H](CCCN(CCCN)C(=O)[C@@H](N)CCCN)C(=O)O1` (stereo partly drawn) [Aerothricin 132] ([d(aThr)][dA]YV[Hyp][d(aThr)]T[Pro(3S-OH)][X1]G[d(aThr)][X2]; linker N-C via X3): the figures for the “In vitro Antifungal activity, IC80” value in data set [2], in data set [3] and in data set [4] were 0.38 µg/mL, 0.28 µg/mL and 2.9 µg/mL, respectively. In data set [5], this molecule yielded a Cytotoxicity to hepatocyte of more than 100 µg/mL. The “In vivo antifungal activity against pulmonary aspergillosis in mice, ED50 on day 14” value (shortened to “In vivo antifungal activity … on day 14”) in data set [6] is on record as 5.2 mg/kg. Also, the “In vivo antifungal activity against systemic candidiasis in mice, ED50 on day 7” value (“In vivo antifungal activity … on day 7” for short) in data set [7] stood at 0.43 mg/kg. Also, the acute toxicity result in data set [8] is recorded as “no acute toxicity”.

In the case of `CCCCCCCCCCCCC[C@@H]1CC(=O)N[C@H]([C@@H](C)O)C(=O)N[C@H](C)C(=O)N[C@@H](Cc2ccc(O)cc2)C(=O)N[C@@H](C(C)C)C(=O)N2C[C@H](O)C[C@H]2C(=O)N[C@H]([C@@H](C)O)C(=O)N[C@@H]([C@@H](C)O)C(=O)N2CC[C@H](O)[C@H]2C(=O)NC([C@H](O)CC(N)=O)C(=O)NCC(=O)N[C@H]([C@@H](C)O)C(=O)N[C@@H](CCCNC(=O)[C@@H](CCCN)NC(=O)[C@@H](N)CCCN)C(=O)O1` (stereo partly drawn) [Aerothricin 133] ([d(aThr)][dA]YV[Hyp][d(aThr)]T[Pro(3S-OH)][ξGln(3R-OH)]G[d(aThr)][Orn]([dOrn-Orn]); linker N-C via X3), the “In vivo antifungal activity … on day 7” value in data set [7] is listed as 0.35 mg/kg.

Consider `CCCCCCCCCCCCC[C@@H]1CC(=O)N[C@H]([C@@H](C)O)C(=O)N[C@H](C)C(=O)N[C@@H](Cc2ccc(O)cc2)C(=O)N[C@@H](C(C)C)C(=O)N2C[C@H](O)C[C@H]2C(=O)N[C@H]([C@@H](C)O)C(=O)N[C@@H]([C@@H](C)O)C(=O)N2CC[C@H](O)[C@H]2C(=O)NC(C(O)CC(N)=O)C(=O)NCC(=O)N[C@H]([C@@H](C)O)C(=O)N[C@@H](CCCN(CCCN)C(=O)[C@H](CCCN)N(CCN)CCN)C(=O)O1` (stereo partly drawn) [Aerothricin 134] ([d(aThr)][dA]YV[Hyp][d(aThr)]T[Pro(3S-OH)][X1]G[d(aThr)][X4](Orn(Nα,Nα-(2-aminoethyl)2)); linker N-C via X3), for which the entries for the “In vitro Antifungal activity, IC80” value in data set [2], in data set [3] and in data set [4] were 0.37 µg/mL, 0.37 µg/mL and 0.58 µg/mL, respectively. In data set [5], this molecule returned a Cytotoxicity to hepatocyte of more than 100 µg/mL. The “In vivo antifungal activity … on day 14” value in data set [6] is given as 5.8 mg/kg.

Take `CCCCCCCCCCCCC[C@@H]1CC(=O)N[C@H]([C@@H](C)O)C(=O)N[C@H](C)C(=O)N[C@@H](Cc2ccc(O)cc2)C(=O)N[C@@H](C(C)C)C(=O)N2C[C@H](O)C[C@H]2C(=O)N[C@H]([C@@H](C)O)C(=O)N[C@@H]([C@@H](C)O)C(=O)N2CC[C@H](O)[C@H]2C(=O)NC(C(O)CC(N)=O)C(=O)NCC(=O)N[C@H]([C@@H](C)O)C(=O)N[C@@H](CCCN(CCCN)C(=O)[C@@H](CCCN)N(CCN)CCN)C(=O)O1` (stereo partly drawn) [Aerothricin 135] ([d(aThr)][dA]YV[Hyp][d(aThr)]T[Pro(3S-OH)][X1]G[d(aThr)][X4](NαBis(2-aminoethyl)dOrn); linker N-C via X3): the “In vitro Antifungal activity, IC80” value stood at 0.35 µg/mL in data set [2], 0.41 µg/mL in data set [3] and 0.37 µg/mL in data set [4]. This molecule came in with a Cytotoxicity to hepatocyte in data set [5] of more than 100 µg/mL. Besides, the “In vivo antifungal activity … on day 7” value in data set [7] is 0.35 mg/kg.

As to `CCCCCCCCCCCCC[C@@H]1CC(=O)N[C@H]([C@@H](C)O)C(=O)N[C@H](C)C(=O)N[C@@H](Cc2ccc(O)cc2)C(=O)N[C@@H](C(C)C)C(=O)N2C[C@H](O)C[C@H]2C(=O)N[C@H]([C@@H](C)O)C(=O)N[C@@H]([C@@H](C)O)C(=O)N2CC[C@H](O)[C@H]2C(=O)NC(C(O)CC(N)=O)C(=O)NCC(=O)N[C@H]([C@@H](C)O)C(=O)N[C@@H](CCCN(CCCN)C(=O)[C@H](CCCN)NCCCN)C(=O)O1` (stereo partly drawn) [Aerothricin 136] ([d(aThr)][dA]YV[Hyp][d(aThr)]T[Pro(3S-OH)][X1]G[d(aThr)][X4](X5); linker N-C via X3), the entries for the “In vitro Antifungal activity, IC80” value in data set [2], in data set [3] and in data set [4] were 0.34 µg/mL, 0.33 µg/mL and 0.38 µg/mL, respectively.

Regarding `CCCCCCCCCCCCC[C@@H]1CC(=O)N[C@H]([C@@H](C)O)C(=O)N[C@H](C)C(=O)N[C@@H](Cc2ccc(O)cc2)C(=O)N[C@@H](C(C)C)C(=O)N2C[C@H](O)C[C@H]2C(=O)N[C@H]([C@@H](C)O)C(=O)N[C@@H]([C@@H](C)O)C(=O)N2CC[C@H](O)[C@H]2C(=O)NC(C(O)CC(N)=O)C(=O)NCC(=O)N[C@H]([C@@H](C)O)C(=O)N[C@@H](CCCN(CCN)C(=O)[C@H](CCCN)N(CCN)CCN)C(=O)O1` (stereo partly drawn) [Aerothricin 137] ([d(aThr)][dA]YV[Hyp][d(aThr)]T[Pro(3S-OH)][X1]G[d(aThr)][X6](Orn(Nα,Nα-(2-aminoethyl)2)); linker N-C via X3), the “In vivo antifungal activity … on day 14” value in data set [6] was 5.2 mg/kg.

Regarding `CCCCCOc1ccc(-c2ccc(-c3ccc(C(=O)N[C@H]4C[C@@H](O)[C@@H](O)NC(=O)[C@@H]5[C@@H](O)[C@@H](C)CN5C(=O)[C@H]([C@@H](C)O)NC(=O)[C@H]([C@H](O)[C@@H](O)c5ccc(O)cc5)NC(=O)[C@@H]5C[C@@H](O)CN5C(=O)[C@H]([C@@H](C)O)NC4=O)cc3)cc2)cc1` [LY303366, reference compound] ({pTerphenylCO(4''-OnC5H11)}-[Orn(4R-OH,5R-OH)]T[Hyp][hTyr(3S-OH,4S-OH)]T[Pro(3S-OH,4S-Me)]; lactam 1-C), the Cytotoxicity to hepatocyte in data set [5] came to 10 µg/mL.
